# Tested on: KRAS PDC tumor spheroids (HUVEC+MSC), viability
# Experiment: Anticancer human tumor 254851-301-R-J1-PDC patient-derived colon carcinoma cell line growth inhibition [KRAS2]
# Settings: for IC50: curve of first compound; for viability, T/C: stronger effect = lower value
# Procedure, shortened: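 KRAS-mutant tumor cells were grown as spheroids with HUVEC endothelial cells and human MSCs as stroma. Targeted agents were tested alone and with KRAS pathway inhibitors. Doses started at or near clinical Cmax, or 10 microM, descending half-log.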
# [1] = second compound 0.1 µM, first compound 0.01 µM
# [2] = second compound 0.1 µM, first compound 0.0316 µM
# [3] = second compound 0.1 µM, first compound 0.1 µM
# [4] = second compound 0.1 µM, first compound 0.316 µM
# [5] = second compound 0.1 µM, first compound 1 µM
# [6] = second compound 0.1 µM, first compound 3.16 µM
# [7] = second compound 0.316 µM, first compound 0.01 µM
# [8] = second compound 0.316 µM, first compound 0.0316 µM
# [9] = second compound 0.316 µM, first compound 0.1 µM
# [10] = second compound 0.316 µM, first compound 0.316 µM
# [11] = second compound 0.316 µM, first compound 1 µM
# [12] = second compound 0.316 µM, first compound 3.16 µM
# [13] = second compound 1 µM, first compound 0.01 µM
# [14] = second compound 1 µM, first compound 0.0316 µM
# [15] = second compound 1 µM, first compound 0.1 µM
# [16] = second compound 1 µM, first compound 0.316 µM
# [17] = second compound 1 µM, first compound 1 µM
# [18] = second compound 1 µM, first compound 3.16 µM
# [19] = second compound 3.16 µM, first compound 0.01 µM
# [20] = second compound 3.16 µM, first compound 0.0316 µM
# [21] = second compound 3.16 µM, first compound 0.1 µM
# [22] = second compound 3.16 µM, first compound 0.316 µM
# [23] = second compound 3.16 µM, first compound 1 µM
# [24] = second compound 3.16 µM, first compound 3.16 µM
# [25] = second compound 10 µM, first compound 0.01 µM
# [26] = second compound 10 µM, first compound 0.0316 µM
# [27] = second compound 10 µM, first compound 0.1 µM
# [28] = second compound 10 µM, first compound 0.316 µM
# [29] = second compound 10 µM, first compound 1 µM
# [30] = second compound 10 µM, first compound 3.16 µM
# 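Further: spheroids exposed to compounds for seven days before readout.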
# 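Wherever viability, T/C is given: 100% = DMSO vehicle control luminescence of the spheroids.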
Structure (SMILES),IC50 (second compound 0.1 µM),IC50 (second compound 0.316 µM),IC50 (second compound 1 µM),IC50 (second compound 3.16 µM),IC50 (second compound 10 µM),"viability, T/C [1]","viability, T/C [2]","viability, T/C [3]","viability, T/C [4]","viability, T/C [5]","viability, T/C [6]","viability, T/C [7]","viability, T/C [8]","viability, T/C [9]","viability, T/C [14]","viability, T/C [15]","viability, T/C [20]","viability, T/C [21]","viability, T/C [26]","viability, T/C [27]",further results
CC(=O)OC12COC1CC(O)C1(C)C(=O)C(O)C3=C(C)C(OC(=O)C(O)C(NC(=O)OC(C)(C)C)c4ccccc4)CC(O)(C(OC(=O)c4ccccc4)C21)C3(C)C (stereo not given) + CC1OCC2(CCN(c3cnc(Sc4ccnc(N)c4Cl)c(N)n3)CC2)C1N,154 nM,175 nM,168 nM,80.1 nM,58.4 nM,99.2%,89.1%,59.8%,33.6%,24.1%,24%,93.3%,85.8%,61.6%,89.6%,60.5%,72.3%,44.5%,66.4%,36.7%,"viability, T/C [10]: 38.1%; viability, T/C [11]: 23.2%; viability, T/C [12]: 22.6%; viability, T/C [13]: 80.7%; viability, T/C [16]: 36.1%; viability, T/C [17]: 26.6%; viability, T/C [18]: 22.9%; viability, T/C [19]: 73.3%; viability, T/C [22]: 22.3%; viability, T/C [23]: 17.1%; viability, T/C [24]: 18.6%; viability, T/C [25]: 64.2%; viability, T/C [28]: 21.2%; viability, T/C [29]: 16.1%; viability, T/C [30]: 16.1%"
CN(C)C/C=C/C(=O)Nc1cc2c(Nc3ccc(F)c(Cl)c3)ncnc2cc1O[C@H]1CCOC1 + CC1OCC2(CCN(c3cnc(Sc4ccnc(N)c4Cl)c(N)n3)CC2)C1N,> 100 nM,> 100 nM,> 100 nM,> 100 nM,63.1 nM,90.2%,84.5%,65.2%,,,,80.2%,83.4%,68%,79.8%,75.8%,59%,51.6%,51.6%,46.8%,"viability, T/C (second compound 0.1 µM, first compound 0.000316 µM): 105%; viability, T/C (second compound 0.1 µM, first compound 0.001 µM): 106%; viability, T/C (second compound 0.1 µM, first compound 0.00316 µM): 92.8%; viability, T/C (second compound 0.316 µM, first compound 0.000316 µM): 94.5%; viability, T/C (second compound 0.316 µM, first compound 0.001 µM): 84.3%; viability, T/C (second compound 0.316 µM, first compound 0.00316 µM): 82.8%; viability, T/C (second compound 1 µM, first compound 0.000316 µM): 95.9%; viability, T/C (second compound 1 µM, first compound 0.001 µM): 84.2%; viability, T/C (second compound 1 µM, first compound 0.00316 µM): 88.1%; viability, T/C [13]: 91.8%; viability, T/C (second compound 3.16 µM, first compound 0.000316 µM): 67.6%; viability, T/C (second compound 3.16 µM, first compound 0.001 µM): 64.1%; viability, T/C (second compound 3.16 µM, first compound 0.00316 µM): 62.8%; viability, T/C [19]: 60.4%; viability, T/C (second compound 10 µM, first compound 0.000316 µM): 85.5%; viability, T/C (second compound 10 µM, first compound 0.001 µM): 97.7%; viability, T/C (second compound 10 µM, first compound 0.00316 µM): 66.9%; viability, T/C [25]: 81.5%"
O=C(c1cc(Cc2n[nH]c(=O)c3ccccc23)ccc1F)N1CCN(C(=O)C2CC2)CC1 + CC1OCC2(CCN(c3cnc(Sc4ccnc(N)c4Cl)c(N)n3)CC2)C1N,> 10000 nM,> 10000 nM,> 10000 nM,> 10000 nM,> 10000 nM,,104%,107%,93.8%,88%,102%,,92.8%,95%,93.6%,87.1%,79.4%,73.1%,68.9%,75.4%,"viability, T/C (second compound 0.1 µM, first compound 10 µM): 91.3%; viability, T/C [10]: 90.6%; viability, T/C [11]: 93.7%; viability, T/C [12]: 94.7%; viability, T/C (second compound 0.316 µM, first compound 10 µM): 92.4%; viability, T/C [16]: 80.6%; viability, T/C [17]: 83.7%; viability, T/C [18]: 87.6%; viability, T/C (second compound 1 µM, first compound 10 µM): 84%; viability, T/C [22]: 73.2%; viability, T/C [23]: 71.2%; viability, T/C [24]: 79.3%; viability, T/C (second compound 3.16 µM, first compound 10 µM): 65.5%; viability, T/C [28]: 66.1%; viability, T/C [29]: 59.9%; viability, T/C [30]: 58.1%; viability, T/C (second compound 10 µM, first compound 10 µM): 60.7%"

# — PubChem BioAssay AID1963868 (Molecular Pharmacology Branch, DTP, NCI, 2024)
